Residues, ends and D or L forms follow the SMILES beside them.
Columns and labels:
[1] = biological target: T1, hFzd-5 (Homo sapiens, UniProt Q13467); test: Receptor specificity: luciferase in HEK293 superTOPflash cells overexpressing hFzd-5; type: cell-based; conditions: UM206 1.10^−8 M
T1 construct: expressed in transfected cells; host or cells: HEK293 superTOPflash (transient, Fugene6, pcDNA3.0)
Protocol: In FIG. 3, Panel E, the efficacy of UM206 to block the Wnt3a-induced activation of luciferase activity in HEK293 superTOPflash cells transfected with different Fzds is shown.
The cell lines were cultured in 75 cm^2 culture flasks (Corning, Schiphol, the Netherlands) in Dulbeco's modified essential medium with L-glutamine (2 mM), 10% fetal calf serum (Invitrogen, Merelbeke, Belgium), and 1% gentamycin (Sigma-Aldrich, Zwijndrecht, The Netherlands). Before starting the experiment, the cell lines were treated with plasmocin 25 μg/ml (Invivogen, Toulose, France) and tested with a mycoalert mycoplasma detection kit (Lonza, Rockland Me., USA). Cells were transiently transfected with Fugene6 (Roche, Indianapolis Ind., USA) with plasmid DNA, pcDNA3.1/hygro (Invitrogen) with frizzled-1/2/4 or Wnts 3a-5a or with pcDNA3.0 (Invitrogen) containing the β-catenin or frizzled-5 sequence. After transfection, the cells were cultured for 24 hours in conditioned medium, collected from the cultured L-cells, L-cells with Wnt3a or 5a (Invitrogen). At the same moment the antagonist was added.

[2] = test system: infarct rupture; test: Infarct rupture in 12956 mice treated with UM206; type: in vivo; conditions: infarct rupture frequency ˜60%; unpublished observations
Source text: Because of the lack of pharmacological tools to intervene in Wnt/Fzd signaling in vivo, only genetic interventions have been reported so far in studies on the role of Wnt signaling in infarct healing. Barandon et al. were the first to show a beneficial effect of overexpression on infarct healing of FrzA, a bovine homologue of soluble frizzled-related protein-1 (sFRP1). They observed a decreased infarct size with elevated numbers of myofibroblasts and increased angiogenesis in the infarcted FrzA transgenic mice (Barandon et al., 2003), which could be confirmed in the present study using an Fzd-1 and -2 antagonist. […] In the mean time, the beneficial effects of sFRP overexpression on infarct healing have been confirmed by Kobayashi et al. (Kobayashi et al., 2009). Taken together, these reports support the observations of the present study and point to a beneficial effect of inhibiting Wnt/Fzd signaling on the wound-healing process after MI.

T1 sequence (Q13467 27-585): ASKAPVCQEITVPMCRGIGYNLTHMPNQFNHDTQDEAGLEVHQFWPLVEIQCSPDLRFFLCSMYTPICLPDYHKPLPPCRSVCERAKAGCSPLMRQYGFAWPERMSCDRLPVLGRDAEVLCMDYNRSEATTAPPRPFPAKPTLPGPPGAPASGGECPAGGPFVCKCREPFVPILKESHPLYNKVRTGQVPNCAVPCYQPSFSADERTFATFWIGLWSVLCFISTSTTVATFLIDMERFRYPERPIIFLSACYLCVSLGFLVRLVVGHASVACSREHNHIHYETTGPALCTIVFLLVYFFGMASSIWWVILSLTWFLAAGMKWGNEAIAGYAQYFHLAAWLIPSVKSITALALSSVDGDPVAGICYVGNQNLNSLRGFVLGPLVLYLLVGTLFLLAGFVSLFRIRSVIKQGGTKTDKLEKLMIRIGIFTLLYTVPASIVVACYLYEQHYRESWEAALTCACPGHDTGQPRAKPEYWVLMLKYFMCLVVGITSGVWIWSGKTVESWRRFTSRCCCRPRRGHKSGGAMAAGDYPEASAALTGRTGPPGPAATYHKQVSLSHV

## CSCC[C@H](NC(=O)CNC(=O)[C@H](CCC(=O)O)NC(=O)[C@H](CO)NC(=O)[C@@H](NC(=O)[C@H](CCCCN)NC(=O)[C@H](CC(N)=O)NC(=O)[C@H](CS)NC(C)=O)[C@@H](C)O)C(=O)N[C@@H](CC(=O)O)C(=O)NCC(=O)N[C@@H](CS)C(=O)N[C@@H](CCC(=O)O)C(=O)N[C@@H](CC(C)C)C(N)=O [UM206, Ac-Cys-Asn-Lys-Thr-Ser-Glu-Gly-Met-Asp-Gly-Cys-Glu-Leu-NH2] (Ac-CNKTSEGMDGCEL-NH2)
[1]
  effect on Wnt3a-induced luciferase activity, frizzled-5: no effect
[2]
  number of ruptured infarcts: did not reduce the number of ruptured infarcts

From US20150071856A1, “ANTAGONISTIC PEPTIDES FOR FRIZZLED-1 AND FRIZZLED-2” (Universiteit Maastricht, priority 2013, published 2015)
